Experiment [1] addresses dimeric C145A 3CL^pro single mutant (Severe acute respiratory syndrome coronavirus 2, UniProt P0DTD1, C3408A). It counts as binding, SARS-CoV-2.
Experiment [2] concerns the target monomeric E290A/R298A 3CL^pro double mutant (Severe acute respiratory syndrome coronavirus 2, UniProt P0DTD1, E3553A/R3561A). It counts as binding, SARS-CoV-2.

For `CC(C)(C)c1ccc(N(C(=O)c2c[nH]cn2)[C@@H](C(=O)NC2CCCCC2)c2cccnc2)cc1` [X77], the binding heat detected entry in experiment [1] is listed as “No measurable heat was detected”. In addition, the binding detectable entry in experiment [2] is “not”.

(Values after article PMC13347698 (Analytical Chemistry, 2026).)
